{"source": "patent US20250090597A1", "about": "“AIRWAY BASAL CELL ENGRAFTMENT METHODS” (TRUSTEES OF BOSTON UNIVERSITY, priority 2023, published 2025)", "key": {"[1]": {"tested_on": "tracheal airway epithelial cells", "test": "Post-polidocanol injury mouse tracheal histological time series", "type": "in vivo", "excerpt": "Intra-tracheal delivery of polidocanol was employed to ablate tracheal airway epithelial cells (see e.g., FIG. 9A). […] Am J Resp Cell Mol 24, 662-670; Engler et al. (2020). Cell Reports 33, 108553; the contents of which are incorporated herein by reference in their entireties. It is contemplated herein that acute epithelial sloughing can generate a temporarily exposed niche on the airway basement membrane for exogenous cells to land. To determine the time window for BC transplantation post polidocanol-mediated injury, tracheal tissues were analyzed in a time series following injury. […] Therefore, donor cells were transplanted five hours post-injury.\nAdult recipient mice (8-16 weeks old) were used for all transplantation studies. Tracheal epithelial injury was induced in isoflurane anesthetized mice by intratracheal delivery of 20 μL of 2% polidocanol using the tongue pull method, followed by recovery prior to cell delivery 5-5.5 hours later. Specifically, the recipient animal was anesthetized with 3% isoflurane until the animal developed exaggerated respiratory movements at rates of 1-1.5 breath/second. Then the mouse was lightly restrained by operator, while a second operator delivered polidocanol solution directly into the posterior oropharynx of the mouse. The nose was gently held to encourage the animal to aspirate through the […], about 2-4 times, or until the liquid was no longer visible. For cell transplants, mice were re-anesthetized and 6×10^6 primary BCs or iBCs suspended in 20 μL of DMEM were intratracheally instilled as above."}, "[2]": {"tested_on": "tracheal airway epithelial cells", "conditions": "Borthwick et al. 2001; Engler et al. 2020; cited from earlier work"}}, "data": [{"smiles": "CCCCCCCCCCCCOCCOCCOCCOCCOCCOCCOCCOCCOCCO", "note": "[polidocanol]", "values": [{"measurement": "tracheal epithelium state after polidocanol exposure", "setting": "[1]; 12 hours after polidocanol exposure", "result": "patches of rounded or cuboidal epithelial cells characterized the regenerating epithelium"}, {"measurement": "tracheal epithelial sloughing after polidocanol exposure", "setting": "[1]; five hours after polidocanol exposure", "result": "epithelial sloughing was more complete with sporadic residual individual cells and more denuded basement membrane"}, {"measurement": "tracheal epithelium state after polidocanol exposure", "setting": "[1]; seven hours after polidocanol exposure", "result": "residual cells had flattened to cover the basement membrane"}, {"measurement": "tracheal epithelial sloughing after polidocanol exposure", "setting": "[1]; three hours after polidocanol exposure, 20 μL of 2% polidocanol intratracheal, H&E", "result": "Extensive epithelial sloughing"}, {"measurement": "time to tracheal epithelial sloughing after polidocanol exposure", "setting": "[2]", "result": "within three hours"}]}]}
